Data set [1] relates to RPMI8226 cells. Kind of data set: Cell proliferation assay (WST assay, Cell Counting Kit-8), myeloma cell strain RPMI8226. It is filed as cell-based. As to conditions: 4 days of incubation, concentration yielding 50% inhibition of cell proliferation. How it is done: The CO2 concentration (%) in a CO2 incubator is expressed by the ratio of CO2 in the atmosphere in vol %.
Myeloma cell strain RPMI8226 (DS Pharma Biomedical Co., Ltd.) was incubated in liquid culture in a CO2 incubator (5% CO2) in RPMI1640 medium containing 10% (v/v) fetal calf serum. The resulting cells were suspended in RPMI640 medium(GIBCO) containing 10% (v/v) fetal calf serum and plated in 96-well flat-bottomed microplates (Corning Incorporated) in 100 μl/mL ([…]) per well. Furtheremore, each of the compounds prepared in Synthetic Examples was dissolved in dimethylsulfoxide and added at 0.1% (v/v) to final concentrations of 0.1 to 10 μg/mL. As the negative control, dimethyl sulfoxide was added at 0.1% (v/v).
After 4 days of incubation at 37° C. in liquid culture in a CO2 incubator (5% CO2), the viable cells were counted by the WST assay. A 10-μl aliquot of Cell Counting Kit-8 reagent solution (Dojindo Molecular Technologies, Inc.) was added to each well and incubated in a CO2 incubator (5% CO2) for 4 hours for color reaction, and light absorbance was measured at 450 nm by using a microplate reader. As the cell growth inhibitory activities in the presence of the test compounds relative to that in the absence of them (negative control), the concentrations (IC50) yielding 50% inhibition of cell proliferation were calculated.
(In general: Tetrazolium assays rely on reduction of a dye to a coloured formazan, in cell work by metabolically active cells.)

Where [2] appears, read: Homo sapiens, RPMI-8226, 96 h, read-out: IC50.

Values after ≈ are worked out from the molar mass of the structure shown. Where two headings read alike, the source gives them in different places.

For the molecule `CCCCCCc1ccc(-c2c(C(C)C)nn(C(C)(C)Cc3ccc(C)cc3)c2O)cc1` [Compound No. 3-07, 4-(4-hexylphenyl)-3-isopropyl-1-(2-methyl-1-p-tolylpropan-2-yl)-1H-pyrazol-5-ol], the IC50 (as a rule, the concentration that inhibits the measured activity by half) in data set [1] was determined as 5.3 mg/L (≈ 12.3 µM); in data set [1] (setting [2]), 8.8 mg/L (≈ 20.3 µM). With `CC(C)C1=NN(C(C)(C)Cc2ccc(Br)cc2)C(=O)C1` [Compound No. 3-12, 1-(1-(4-bromophenyl)-2-methylpropan-2-yl)-3-isopropyl-1H-pyrazol-5(4H)-one], the IC50 in data set [1] (setting [2]) worked out at 5.4 mg/L (≈ 16 µM). On the same count and under the same terms, the result for `COc1cc(-c2ccccc2)nn1C(C)(C)c1ccccc1` [Compound No. 3-13, 5-methoxy-3-phenyl-1-(2-phenylpropan-2-yl)-1H-pyrazole] reads 5.4 mg/L (≈ 18.5 µM). `COc1c(C)c(-c2ccccc2)nn1C(C)(C)c1ccccc1` [Compound No. 3-14, 5-methoxy-4-methyl-3-phenyl-1-(2-phenylpropan-2-yl)-1H-pyrazole]: the IC50 in data set [1] (setting [2]) is 7.9 mg/L (≈ 25.8 µM). Consider `CC(C)(Cc1ccccc1)N1N=C(c2ccccc2)CC1=O` [Compound No. 3-16, 1-(2-methyl-1-phenylpropan-2-yl)-3-phenyl-1H-pyrazol-5(4H)-one], for which the IC50 in data set [1] (setting [2]) was 3.5 mg/L (≈ 12 µM). Take `CC(C)C1=NN(C(C)(C)Cc2ccccc2)C(=O)C1Br` (stereo not shown) [Compound No. 3-47, 4-bromo-3-isopropyl-1-(2-methyl-1-phenylpropan-2-yl)-1H-pyrazol-5(4H)-one]: in data set [1] (setting [2]), the IC50 is 3.3 mg/L (≈ 9.78 µM). With `COC(=O)CC1=NN(C(C)(C)c2ccccc2)C(=O)C1` [Compound No. 4-01, methyl 2-(5-oxo-1-(2-phenylpropan-2-yl)-4,5-dihydro-1H-pyrazol-3-yl)acetate], the IC50 in data set [1] (setting [2]) worked out at 11.1 mg/L (≈ 40.5 µM). On the same count and under the same terms, the same measure for `COC(=O)c1ccc(-c2c(C(C)C)nn(C(C)(C)Cc3ccccc3)c2O)cc1` [Compound No. 4-23, methyl 4-(5-hydroxy-3-isopropyl-1-(2-methyl-1-phenylpropan-2-yl)-1H-pyrazol-4-yl)benzoate]: 6.3 mg/L (≈ 16.1 µM).

In the case of `CCOC(=O)c1c(C(C)C)nn(C(C)(C)c2ccccc2)c1O` [Compound No. 4-27, ethyl 5-hydroxy-3-isopropyl-1-(2-phenylpropan-2-yl)-1H-pyrazole-4-carboxylate], the IC50 in data set [1] (setting [2]) came out at 5.5 mg/L (≈ 17.4 µM). As to `CC(C)c1nn(C(C)(C)Cc2ccccc2)c(O)c1C(=O)c1ccccc1` [Compound No. 4-71, (5-hydroxy-3-isopropyl-1-(2-methyl-1-phenylpropan-2-yl)-1H-pyrazol-4-yl)(phenyl)methanone], the IC50 in data set [1] (setting [2]) came to 3.2 mg/L (≈ 8.83 µM).

Turning to `CCCCCCc1ccc(-c2c(C#N)nn(C(C)(C)Cc3ccc(C)cc3)c2O)cc1` [Compound No. 4-86, 4-(4-Hexylphenyl)-5-hydroxy-1-(2-methyl-1-(p-tolyl)propan-2-yl)-1H-pyrazole-3-carbonitrile], the melting point (in general, the temperature, or range, at which the solid turns liquid) fell in the range of 140 to 142 °C. The IC50 in data set [1] (setting [2]) is 3.3 mg/L (≈ 7.94 µM).

For `CON=C(C)c1c(C(C)C)nn(C(C)(C)Cc2ccccc2)c1O` [Compound No. 4-89, 1-(5-Hydroxy-3-isopropyl-1-(2-methyl-1-phenylpropan-2-yl)-1H-pyrazol-4-yl)ethanone O-methyl oxime], in data set [1] (setting [2]), the IC50 was determined as 4.7 mg/L (≈ 14.3 µM).

As to `CCCCCCc1ccc(-c2cnn(C(C)(C)Cc3ccc(C)cc3)c2O)cc1` [Compound No. 4-90, 4-(4-Hexylphenyl)-1-(2-methyl-1-(p-tolyl)propan-2-yl)-1H-pyrazol-5-ol], the melting point fell in the range of 149 to 151 °C. Further, the IC50 in data set [1] (setting [2]) amounted to 5.5 mg/L (≈ 14.1 µM).

For the origin of these results see patent US8658686B2, “Pyrazole compounds having therapeutic effect on multiple myeloma” (Nissan Chemical Industries, Ltd., priority 2010, dated 2014).
